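Here, GI50 denotes the concentration required for 50% inhibition of growth. TGI: concentration producing complete growth inhibition.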
What was measured:
Experiment in all cases: NCI anticancer screen, dose series, 384-well format
NCI-H226 lung = system: NCI-H226 lung
NCI-H23 lung = system: NCI-H23 lung
NCI-H322M lung = system: NCI-H322M lung
NCI-H460 NSCLC = system: NCI-H460 NSCLC
NCI-H522 lung = system: NCI-H522 lung
OVCAR-3 ovarian = system: OVCAR-3 ovarian
OVCAR-4 ovarian = system: OVCAR-4 ovarian
OVCAR-5 ovarian = system: OVCAR-5 ovarian
OVCAR-8 ovarian = system: OVCAR-8 ovarian
PC-3 prostate = system: PC-3 prostate
RXF 393 renal = system: RXF 393 renal
SF-268 CNS = system: SF-268 CNS
SF-295 CNS = system: SF-295 CNS
SF-539 CNS = system: SF-539 CNS
SK-MEL-2 melanoma = system: SK-MEL-2 melanoma
SK-MEL-28 melanoma = system: SK-MEL-28 melanoma
SK-MEL-5 melanoma = system: SK-MEL-5 melanoma
SN12C renal = system: SN12C renal
SNB-19 CNS = system: SNB-19 CNS
SNB-75 CNS = system: SNB-75 CNS
SR leukemia = system: SR leukemia
SW-620 colon = system: SW-620 colon
T-47D breast = system: T-47D breast
TK-10 renal = system: TK-10 renal
U251 glioblastoma = system: U251 glioblastoma
UACC-257 melanoma = system: UACC-257 melanoma
UACC-62 melanoma = system: UACC-62 melanoma
UO-31 renal = system: UO-31 renal

Compound: COc1cc(C(=O)O)ccc1NC(=O)[C@@H]1N[C@@H](CC(C)(C)C)[C@](C#N)(c2ccc(Cl)cc2F)[C@H]1c1cccc(Cl)c1F
- TGI (NCI-H226 lung): 0.128 µM
- GI50 (NCI-H23 lung): 4.77 µM
- GI50 (NCI-H322M lung): 10.3 µM
- TGI (NCI-H322M lung): 22 µM
- GI50 (NCI-H460 NSCLC): 4.31 µM
- TGI (NCI-H460 NSCLC): 14.5 µM
- GI50 (NCI-H522 lung): 3.74 µM
- TGI (NCI-H522 lung): 10.9 µM
- GI50 (OVCAR-3 ovarian): 2.35 µM
- TGI (OVCAR-3 ovarian): 5.27 µM
- GI50 (OVCAR-4 ovarian): 5.83 µM
- TGI (OVCAR-4 ovarian): 18.3 µM
- GI50 (OVCAR-5 ovarian): 8.12 µM
- TGI (OVCAR-5 ovarian): 20.2 µM
- GI50 (OVCAR-8 ovarian): 4.65 µM
- GI50 (PC-3 prostate): 4.32 µM
- TGI (PC-3 prostate): 14.2 µM
- GI50 (RXF 393 renal): 2.59 µM
- TGI (RXF 393 renal): 5.85 µM
- GI50 (SF-268 CNS): 3.87 µM
- TGI (SF-268 CNS): 12.5 µM
- GI50 (SF-295 CNS): 3.77 µM
- GI50 (SF-539 CNS): 3.09 µM
- TGI (SF-539 CNS): 11.6 µM
- GI50 (SK-MEL-2 melanoma): 2.69 µM
- TGI (SK-MEL-2 melanoma): 6.28 µM
- GI50 (SK-MEL-28 melanoma): 2.73 µM
- TGI (SK-MEL-28 melanoma): 6.12 µM
- GI50 (SK-MEL-5 melanoma): 1.15 µM
- TGI (SK-MEL-5 melanoma): 2.44 µM
- GI50 (SN12C renal): 4.7 µM
- TGI (SN12C renal): 15.9 µM
- GI50 (SNB-19 CNS): 4.3 µM
- TGI (SNB-19 CNS): 14.1 µM
- GI50 (SNB-75 CNS): 6.6 µM
- TGI (SNB-75 CNS): 18.7 µM
- GI50 (SR leukemia): < 0.01 µM
- TGI (SR leukemia): 0.0122 µM
- GI50 (SW-620 colon): 4.53 µM
- TGI (SW-620 colon): 14.2 µM
- GI50 (T-47D breast): 3.16 µM
- GI50 (TK-10 renal): 5.05 µM
- TGI (TK-10 renal): 16.6 µM
- GI50 (U251 glioblastoma): 3.68 µM
- GI50 (UACC-257 melanoma): 0.228 µM
- TGI (UACC-257 melanoma): 0.657 µM
- GI50 (UACC-62 melanoma): < 0.01 µM
- TGI (UACC-62 melanoma): 1.44 µM
- GI50 (UO-31 renal): 0.0758 µM
- TGI (UO-31 renal): 0.464 µM

From PubChem BioAssay (NCI)
